Measured values published in patent publication US11834391B2, “Pantothenamide analogues” (MMV MEDICINES FOR MALARIA VENTURE, priority 2018, dated 2023).

Experiments:
[1] = tested on: P. falciparum NF54 asexual blood stage parasites; experiment: Replication assay for asexual blood-stage parasites (SYBR Green); assay type: cell-based; settings: Plasmodium falciparum; P. falciparum NF54, 72 h incubation, 10% human serum; average of at least two replicate experiments; read-out: antimalarial IC50 asexual blood stages
Method: (§1) Plasmodium falciparum strain NF54 was cultured in Roswell Park Memorial Institute (RPMI) 1640 medium supplemented with 25 mM NaHCO3, 10% human type A serum and 5% (v/v) human type 0 red blood cells (Sanquin, the Netherlands). Replication assays for asexual blood-stage parasites were performed by diluting parasites in RPMI1640 medium with 10% human serum to a parasitemia of 0.83% and a hematocrit of 3%. 30 μl of diluted parasites were combined with 30 μl of compound serially diluted in DMSO and RPMI1640 medium to reach a final DMSO concentration of 0.1% in a total assay volume of 60 μL. Following a 72 h incubation at 37 ° C., 3% O2, 4% CO2, 30 μL of diluted SYBR® Green reagent was added according to the instructions of the manufacturer (Life Technologies) and fluorescence intensity was quantified using a Biotek Synergy® 2 plate reader. Gametocyte viability assays were initiated by inoculating a culture flask with 1% asexual blood-stage parasites in 5% haematocrit in RPMI1640 medium with 10% human serum. From day 4 to day 9 after inoculation, cultures were treated with 50 mM N-acetylglucosamine to eliminate asexual blood-stage parasites. At day 11 post inoculation, gametocytes (predominantly stage IV) were isolated by Percoll® density gradient centrifugation. Gametocytes were seeded at a density of 5,000 cells/well in a 384 well plate and combined with compound diluted in DMSO and subsequently in RPMI1640 medium to reach a final DMSO concentration of 0.1% in a volume of 60 μL RPMI1640 medium with 10% human serum. Following a 72 h incubation at 37 ° C., 3% O2, 4% CO2, 30 μL of ONE-Glo® reagent (Promega) was added and luminescence was quantified using a Biotek Synergy 2 reader. IC50 values were derived by fitting a four parameter logistic regression model to the data using least squares to find the best fit.

[2] = tested on: P. falciparum NF54 gametocytes; experiment: Gametocyte viability assay (ONE-Glo luminescence); assay type: cell-based; settings: Plasmodium falciparum; P. falciparum NF54 gametocytes (predominantly stage IV), 72 h incubation, 10% human serum; average of at least two replicate experiments; read-out: antimalarial IC50 gametocytes
Method: as §1

[3] = Metabolic stability in human primary hepatocytes (hepatocyte relay assay); assay type: in vitro ADME; settings: primary hepatocytes (hepatocyte relay assay), human primary hepatocytes, relay assay, 10 μM, average of two replicate experiments; for half-life at 10 μM: read-out: T½ average
Method: (§2) Metabolic stability of compounds of the invention was assessed in a hepatocyte relay assay. Human primary hepatocytes (Xenotech) were cultured in collagen coated 96-well plates in Williams E (Gibco® 32551087) supplemented with 1% PenStrep (Gibco 15140-122), 1% Fungizone® (Gibco 15290026), 10% heat-inactivated fetal bovine serum (hiFBS) (Gibco 10270-106), 0.1 IU/ml insulin (Sigma 12643) and 7μM hydrocortisone hemisuccinate (Sigma H2270) at 37° C. and 5% CO2. Test compounds were added to a final concentration of 10 μM in 0.1 DMSO. Every 24 hours, the cell supernatant was transferred to freshly plated, metabolically full active cells. At regular time intervals, aliquots of supernatants were frozen for future analysis. At the end of the incubation, all samples were thawed and compound levels in time were determined by LC-MS analyses. Data were analysed by linear regression.

[4] = tested on: P. falciparum strain Pf3D70087/N9; experiment: In vivo antimalarial activity in humanized mouse model for P. falciparum infection; parameters: species or system Plasmodium falciparum
Method: Reduction of existing parasitemia in vivo was investigated using a humanized mouse model for P. falciparum infection. Female NODscidIL2Rynull mice were engrafted by daily intravenous injection of 0.6 ml of human blood for 11 days. Subsequently, mice were infected with P. falciparum strain Pf3D70087/N9 by injecting 2.10^7 parasites in a volume of 0.2 ml. Four days post infection, mice were treated with a single 50 mg/kg dose of test compound. To this end, compounds were formulated in 70% Tween®-80 (d=1.08g/ml) and 30% ethanol (d=0.81g/ml), followed by a 10-fold dilution in H2O and administered by oral gavage. Parasitemia was followed by daily collection of 2 μl tail blood. The hematocrit was determined by fluorescence-activated cell sorting (FACS) and parasitemia by microscopy on >10,000 red blood cells. […] The compounds indicated at the legend were dosed as a single oral dose of 50 mg/kg at day 4 post infection (indicated by the arrow) and parasitemia was followed for another three days. The data shown in FIG. 1 indicate that all pantothenamide analogues tested show a dramatic reduction in blood stage parasitemia at a single oral dose of 50 mg/kg.

[5] = tested on: Human primary hepatocytes; experiment: Metabolic stability in human primary hepatocytes (hepatocyte relay assay); assay type: in vitro ADME; settings: comparative example
Method: as §2

[6] = female NODscidIL2Rγnull mice, single oral dose 50 mg/kg at day 4 post infection
[7] = same protocol as example 16, relay assay

| Compound | IC50 [1] | IC50 [2] | hepatocyte CLint at 10 μM [3] | half-life at 10 μM [3] | In vivo efficacy log reduction in parasitemia in Pf SCID mouse at 50 mg/kg p.o. 1 × QD [4, 6] | metabolic stability compared with the compounds of the invention (in words) [5] | Metabolic stability in human hepatocytes Clint [5, 7] | Metabolic stability in human hepatocytes T½ [5, 7] | in vivo efficacy compared with the compounds of the invention (in words) ([4]; comparative example) | In vivo efficacy log reduction in parasitemia in Pf SCID mouse at 50 mg/kg p.o. 1 × QD ([4]; comparative example, same protocol as example 17, female NODscidIL2Rγnull mice) |
| --- | --- | --- | --- | --- | --- | --- | --- | --- | --- | --- |
| C[C@@H](CNC(=O)[C@H](O)C(C)(C)CO)NC(=O)c1cc(F)c(F)cc1F [Compound A1, (2R)-2,4-dihydroxy-3,3-dimethyl-N-[(2S)-2-[(2,4,5-trifluorophenyl)formamido]propyl]butanamide] | 2.4 nM | 8 nM | 0.4 µL/min/1e6 cells | 59.4 h | >3 |  |  |  |  |  |
| C[C@@H](CNC(=O)[C@H](O)C(C)(C)CO)NC(=O)c1cc(C#N)ccc1F [Compound B1, (2R)-N-[(2S)-2-[(5-cyano-2-fluorophenyl)formamido]propyl]-2,4-dihydroxy-3,3-dimethylbutanamide] | 6.2 nM | 21.4 nM | 0.2 µL/min/1e6 cells | 107 h | 2.4 |  |  |  |  |  |
| C[C@@H](CNC(=O)[C@H](O)C(C)(C)CO)NC(=O)c1cccc(C#N)c1 [Compound C1, (2R)-N-[(2S)-2-[(3-cyanophenyl)formamido]propyl]-2,4-dihydroxy-3,3-dimethylbutanamide] | 7.4 nM | 2.2 nM | 0.3 µL/min/1e6 cells | 84.1 h | >3 |  |  |  |  |  |
| C[C@@H](CNC(=O)[C@H](O)C(C)(C)CO)NC(=O)c1cc(Cl)c(F)cc1F [Compound D1, (2R)-N-[(2S)-2-[(5-chloro-2,4-difluorophenyl)formamido]propyl]-2,4-dihydroxy-3,3-dimethylbutanamide] | 2.3 nM | 0.4 nM |  |  |  |  |  |  |  |  |
| C[C@@H](CNC(=O)[C@H](O)C(C)(C)CO)NC(=O)c1cccc(F)c1 [Compound E1, (2R)-N-[(2S)-2-[(3-fluorophenyl)formamido]propyl]-2,4-dihydroxy-3,3-dimethylbutanamide] | 1.9 nM | 2 nM | 0.5 µL/min/1e6 cells | 42.2 h | >3 |  |  |  |  |  |
| C[C@@H](CNC(=O)[C@H](O)C(C)(C)CO)NC(=O)c1cccc(Cl)c1 [Compound F1, (2R)-N-[(2S)-2-[(3-chlorophenyl)formamido]propyl]-2,4-dihydroxy-3,3-dimethylbutanamide] | 2.1 nM | 0.4 nM |  |  |  |  |  |  |  |  |
| C[C@@H](CNC(=O)[C@H](O)C(C)(C)CO)NC(=O)c1ccc(F)c(Cl)c1 [Compound G1, (2R)-N-[(2S)-2-[(3-chloro-4-fluorophenyl)formamido]propyl]-2,4-dihydroxy-3,3-dimethylbutanamide] | 3.4 nM | 0.2 nM |  |  |  |  |  |  |  |  |
| C[C@H](CNC(=O)[C@@H](O)C(C)(C)CO)NC(=O)CCc1ccccc1F [MMV689258, reference compound] |  |  |  |  |  | substantially lower | 0.8 μl/min/10^6 cells | 29.403 h | substantially less efficacious | 1.5 |
